In the supplement of paper PMC10307832:

Legend:
Test in all cases: relative viability (nuclei count vs DMSO), 5 days (fraction); higher = more cells survive
HCC-15 = tested on: HCC-15
Summary of the method: (§1)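 After 5 days of treatment, lung cancer cells in 1536-well plates were fixed and stained in a single step (final 0.05% Triton X-100, 1% formaldehyde, 1 ug/ml Hoechst) and their nuclei counted on 4× images. Treatment had been applied by pin tool the day after seeding as one drug alone or as a fixed anchor-drug dose with five library-drug doses (not always all listed) in √10 steps. Relative viability is the nuclei count of treated wells divided by that of vehicle wells, and values are medians of duplicate plates.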

COR-L 105 = tested on: COR-L 105
Summary of the method: as §1

HCC-78 = tested on: HCC-78
Summary of the method: as §1

NCI-H1755 = tested on: NCI-H1755
Summary of the method: as §1

ABC-1 = tested on: ABC-1
Summary of the method: as §1

NCI-H1993 = tested on: NCI-H1993
Summary of the method: as §1

UMC-11 = tested on: UMC-11
Summary of the method: as §1

NCI-H1975 = tested on: NCI-H1975
Summary of the method: as §1

NCI-H322M = tested on: NCI-H322M
Summary of the method: as §1

EMC-BAC-2 = tested on: EMC-BAC-2
Summary of the method: as §1

NCI-H358 = tested on: NCI-H358
Summary of the method: as §1

EPLC-272H = tested on: EPLC-272H
Summary of the method: as §1

NCI-H2085 = tested on: NCI-H2085
Summary of the method: as §1

HOP-62 = tested on: HOP-62
Summary of the method: as §1

NCI-H3122 = tested on: NCI-H3122
Summary of the method: as §1

NCI-H2023 = tested on: NCI-H2023
Summary of the method: as §1

NCI-H2126 = tested on: NCI-H2126
Summary of the method: as §1

CAL-12T = tested on: CAL-12T
Summary of the method: as §1

LXF-289 = tested on: LXF-289
Summary of the method: as §1

NCI-H1666 = tested on: NCI-H1666
Summary of the method: as §1

NCI-H1915 = tested on: NCI-H1915
Summary of the method: as §1

Oc1nc(-c2ccc(C(F)(F)F)cc2)nc2c1CSCC2 [XAV939] + CS(=O)(=O)CCNCc1ccc(-c2ccc3ncnc(Nc4ccc(OCc5cccc(F)c5)c(Cl)c4)c3c2)o1 [Lapatinib] (partner 2 µM)
relative viability (HCC-15; first compound 0.08 µM): 1.02 | relative viability (HCC-15; first compound 0.253 µM): 0.774 | relative viability (HCC-15; first compound 0.8 µM): 0.829 | relative viability (HCC-15; first compound 2.53 µM): 0.806 | relative viability (COR-L 105; first compound 0.08 µM): 0.426 | relative viability (COR-L 105; first compound 0.253 µM): 0.347 | relative viability (COR-L 105; first compound 0.8 µM): 0.37 | relative viability (COR-L 105; first compound 2.53 µM): 0.301 | relative viability (HCC-78; first compound 0.08 µM): 0.868 | relative viability (HCC-78; first compound 0.253 µM): 0.508 | relative viability (HCC-78; first compound 0.8 µM): 0.326 | relative viability (HCC-78; first compound 2.53 µM): 0.457 | relative viability (NCI-H1755; first compound 0.08 µM): 0.92 | relative viability (NCI-H1755; first compound 0.253 µM): 0.87 | relative viability (NCI-H1755; first compound 0.8 µM): 0.896 | relative viability (NCI-H1755; first compound 2.53 µM): 0.955 | relative viability (ABC-1; first compound 0.08 µM): 1.34 | relative viability (ABC-1; first compound 0.253 µM): 1.08 | relative viability (ABC-1; first compound 0.8 µM): 1.26 | relative viability (ABC-1; first compound 2.53 µM): 0.657 | relative viability (NCI-H1993; first compound 0.8 µM): 0.866 | relative viability (NCI-H1993; first compound 2.53 µM): 0.702 | relative viability (UMC-11; first compound 0.08 µM): 1.15 | relative viability (UMC-11; first compound 0.253 µM): 0.742 | relative viability (UMC-11; first compound 0.8 µM): 0.97 | relative viability (UMC-11; first compound 2.53 µM): 0.921 | relative viability (NCI-H1975; first compound 0.08 µM): 0.733 | relative viability (NCI-H1975; first compound 0.253 µM): 0.655 | relative viability (NCI-H1975; first compound 0.8 µM): 0.753 | relative viability (NCI-H1975; first compound 2.53 µM): 0.646 | relative viability (NCI-H322M; first compound 0.08 µM): 0.602 | relative viability (NCI-H322M; first compound 0.253 µM): 0.57 | relative viability (NCI-H322M; first compound 0.8 µM): 0.599 | relative viability (NCI-H322M; first compound 2.53 µM): 0.426 | relative viability (EMC-BAC-2; first compound 0.08 µM): 1.01 | relative viability (EMC-BAC-2; first compound 0.253 µM): 0.821 | relative viability (EMC-BAC-2; first compound 0.8 µM): 0.837 | relative viability (EMC-BAC-2; first compound 2.53 µM): 0.681 | relative viability (NCI-H358; first compound 0.08 µM): 0.502 | relative viability (NCI-H358; first compound 0.253 µM): 0.469 | relative viability (NCI-H358; first compound 0.8 µM): 0.494 | relative viability (NCI-H358; first compound 2.53 µM): 0.434 | relative viability (EPLC-272H; first compound 0.08 µM): 1.06 | relative viability (EPLC-272H; first compound 0.253 µM): 0.893 | relative viability (EPLC-272H; first compound 0.8 µM): 1 | relative viability (EPLC-272H; first compound 2.53 µM): 0.864 | relative viability (NCI-H2085; first compound 0.08 µM): 0.692 | relative viability (NCI-H2085; first compound 0.253 µM): 0.699 | relative viability (NCI-H2085; first compound 0.8 µM): 0.743 | relative viability (NCI-H2085; first compound 2.53 µM): 0.649 | relative viability (HOP-62; first compound 0.08 µM): 1.1 | relative viability (HOP-62; first compound 0.253 µM): 0.963 | relative viability (HOP-62; first compound 0.8 µM): 0.918 | relative viability (HOP-62; first compound 2.53 µM): 0.735 | relative viability (NCI-H3122; first compound 0.08 µM): 1.01 | relative viability (NCI-H3122; first compound 0.253 µM): 0.95 | relative viability (NCI-H3122; first compound 0.8 µM): 1.01 | relative viability (NCI-H3122; first compound 2.53 µM): 1.01 | relative viability (NCI-H2023; first compound 0.08 µM): 0.737 | relative viability (NCI-H2023; first compound 0.253 µM): 0.723 | relative viability (NCI-H2023; first compound 0.8 µM): 0.674 | relative viability (NCI-H2023; first compound 2.53 µM): 0.622 | relative viability (NCI-H2126; first compound 0.08 µM): 0.739 | relative viability (NCI-H2126; first compound 0.253 µM): 0.583 | relative viability (NCI-H2126; first compound 0.8 µM): 0.667 | relative viability (NCI-H2126; first compound 2.53 µM): 0.585 | relative viability (CAL-12T; first compound 0.08 µM): 0.729 | relative viability (CAL-12T; first compound 0.253 µM): 0.664 | relative viability (CAL-12T; first compound 0.8 µM): 0.525 | relative viability (CAL-12T; first compound 2.53 µM): 0.426 | relative viability (LXF-289; first compound 0.08 µM): 0.898 | relative viability (LXF-289; first compound 0.253 µM): 0.826 | relative viability (LXF-289; first compound 0.8 µM): 0.897 | relative viability (LXF-289; first compound 2.53 µM): 0.919 | relative viability (NCI-H1666; first compound 0.08 µM): 0.571 | relative viability (NCI-H1666; first compound 0.253 µM): 0.415 | relative viability (NCI-H1666; first compound 0.8 µM): 0.442 | relative viability (NCI-H1666; first compound 2.53 µM): 0.353 | relative viability (NCI-H1915; first compound 0.08 µM): 1.13 | relative viability (NCI-H1915; first compound 0.253 µM): 0.934 | relative viability (NCI-H1915; first compound 0.8 µM): 1.05 | relative viability (NCI-H1915; first compound 2.53 µM): 0.993
